Data from US20110245200A1, “USE OF IDRABI[…] DECREASING THE INCIDENCE OF BLEEDINGS DURING AN ANTI[…]” (SANOFI-AVENTIS, priority 2008, published 2011).

Tests used:
[1] = tested on: patients with acute symptomatic DVT; assay: EQUINOX clinical trial: bleeding (safety) and efficacy over 6 months of treatment; assay type: in vivo, human; settings: for Kaplan-Meier cumulative incidence of first bleeding (any bleeding), comparison of the two groups: FIG. 1; for Major bleeding, number of patients [n] / Any bleeding (clinically relevant major or non-major), % of patients / Any bleeding (clinically relevant major or non-major), number of patients [n] / Major bleeding, % of patients (incidence): first study drug administration up to D182; for Any bleeding (clinically relevant major or non-major), % of patients: crude rate; for Any bleeding (clinically relevant major or non-major), number of patients [n]: once-weekly s.c., equimolar doses (idrabiotaparinux 3.0 mg, idraparinux 2.5 mg); for Major bleeding, % of patients (incidence): p=0.006 Fisher's exact test
Description: (§1) This trial was aimed at studying the bioequipotency of idrabiotaparinux and idraparinux, as assessed by anti-Xa activity at month 6, in patients with acute symptomatic DVT, as well as studying the ability to neutralize idrabiotaparinux with avidin, and also at documenting the safety and efficacy of idrabiotaparinux and idraparinux.
The study was an international, multi-center, double-blind, randomized, with two parallel groups phase III study, in patients treated for acute symptomatic DVT. In order to get 600 patients (300 patients in each treatment group) who completed the 6-month treatment with idrabiotaparinux or idraparinux, 700 patients with confirmed symptomatic DVT of the lower limbs were to be randomized to either idrabiotaparinux (n=350 patients) or idraparinux (n=350 patients). 300 completed patients per group, with a 6-month extent of exposure to the drug, were considered as an adequate sample size to assess clinical safety of idrabiotaparinux, i.e. to characterize the pattern of adverse events over time.
During the study period, patients were treated with equimolar doses of idrabiotaparinux (3.0 mg) or of idraparinux (2.5 mg). The drug was injected subcutaneously, once-weekly.
For safety, the main endpoints were clinically relevant bleeding (major or clinically relevant non-major), as classified by the Central Independent Adjudication Committee (hereafter “CIAC”), and death (cause of death validated by the CIAC).
The safety population consisted of all randomized patients who took at least one dose of study medication (all treated population). Patients were analyzed according to the treatment they actually received.
The main safety analysis period was the randomized treatment period, defined as the period from first study drug administration (taken as Day 1) up to Day 182 (hereafter “D182”).
The numbers and percentages of patients with clinically relevant bleeding within 6 months (from first study drug administration up to Day 182) were presented by treatment group. The rate of any clinically relevant bleeding was calculated by dividing the number of patients with this event by the number of treated patients (crude rate). Bleeding rate estimates and exact 95% confidence interval (hereafter “C1”) were presented by treatment group. Cumulative incidences of any clinically relevant bleeding during the on-treatment period were also described by treatment group using the Kaplan-Meier method. Time to first clinically relevant bleeding was censored at the minimum day between: Day 182; the day of last study drug administration+7 days; the day of death; and the day of last clinical event assessment giving any information on bleeding symptoms.
The numbers and percentages (crude rates) of patients with major bleedings within 6 months (from first study drug administration up to Day 182) were also presented by treatment group. The criteria used by the CIAC to classify major bleedings were summarized according to the worst severity. The order of severity was: fatal bleeding, including fatal intra-cranial hemorrhage (hereafter “ICH”), non-fatal bleeding within a critical organ, non-fatal bleeding with fall in hemoglobin or transfusion.

activated factor X = assay: EQUINOX clinical trial: bioequipotency assessed by anti-Xa activity; assay type: in vivo, human; settings: equimolar doses
Description: as §1

patients with DVT [2] = assay: Putative indirect comparison of idrabiotaparinux with standard treatment (EQUINOX OR times van Gogh DVT OR); assay type: in vivo, human; settings: 95% CI: 0.061-1.020; p value 0.053; calculated as 0.200 times 1.245
Experimental: For major bleedings, the putative odds ratio (OR) comparing idrabiotaparinux to the standard treatment (OR=0.249 [95% CI: 0.061-1.020]) yielded a p value of 0.053; this putative OR was calculated as OR of idrabiotaparinux versus idraparinux in EQUINOX (0.200) times OR of idraparinux versus standard treatment in van Gogh DVT (1.245).

patients with DVT [3] = assay: VAN GOGH clinical trial (DVT): bleeding incidence, idraparinux versus standard therapy; assay type: in vivo, human
Description: According to the results published in N. Engl.

patients with DVT [4] = settings: 6 months after start of treatment (Day 183), N. Engl. J. Med., 2007, 357, 1094-104; cited from earlier work
[5] = major bleedings up to D182 by adjudication criterion, all treated population

SMILES	Major bleeding, number of patients [n] ([1]; all treated population)	Any bleeding (clinically relevant major or non-major), % of patients ([1]; all treated population) [%]	Any bleeding (clinically relevant major or non-major), number of patients [n] ([1]; all treated population)	Major bleeding, % of patients (incidence) ([1]; all treated population) [%]	Fatal bleeding: Gastrointestinal, number of patients [n] [1, 5]	Fatal bleeding: Intracranial, number of patients [n] [1, 5]	Fatal bleeding: Other, number of patients [n] [1, 5]	Non-fatal bleeding associated with a fall in hemoglobin >=2 g/dL and/or leading to a transfusion >=2 units of blood, % of patients [1, 5] [%]	Non-fatal bleeding associated with a fall in hemoglobin >=2 g/dL and/or leading to a transfusion >=2 units of blood, number of patients [n] [1, 5]	Non-fatal bleeding into a critical organ: Intracranial, number of patients [n] [1, 5]	Non-fatal bleeding into a critical organ: Other, number of patients [n] [1, 5]	Non-fatal bleeding into a critical organ: Pericardial, number of patients [n] [1, 5]	Non-fatal bleeding into a critical organ: Retroperitoneal, number of patients [n] [1, 5]	also measured
CO[C@H]1O[C@H](COS(=O)(=O)O)[C@@H](O[C@@H]2O[C@@H](C(=O)O)[C@@H](O[C@H]3O[C@H](COS(=O)(=O)O)[C@@H](O[C@@H]4O[C@H](C(=O)O)[C@@H](O[C@H]5O[C@H](COS(=O)(=O)O)[C@@H](OC)[C@H](OC)[C@H]5NC(=O)CCCCCNC(=O)CCCC[C@@H]5SC[C@@H]6NC(=O)N[C@@H]65)[C@H](OC)[C@H]4OC)[C@H](OS(=O)(=O)O)[C@H]3OS(=O)(=O)O)[C@H](OC)[C@H]2OC)[C@H](OS(=O)(=O)O)[C@H]1OS(=O)(=O)O [Idrabiotaparinux, idrabiotaparinux]	3	5.2	20	0.8	0	0	1	0.5	2	0	0	0	0	Odds ratio for major bleedings, idrabiotaparinux versus idraparinux ([1]; EQUINOX): 0.200; Kaplan-Meier cumulative incidence of first bleeding (any bleeding), comparison of the two groups ([1]; on-treatment period, at month 3): comparable; Kaplan-Meier cumulative incidence of first major bleeding, comparison of the two groups ([1]; FIG. 2, on-treatment period, after month 2): marked difference in major bleeding incidences between the two treatment groups, in favour of the idrabiotaparinux group; Fatal bleeding: Other, % of patients [1, 5]: 0.3%; Fatal bleeding: Other, number of patients [n] ([1]; major bleedings up to D182 by adjudication criterion, all treated population, listed as idrabiotaparinux): One; Safety (observed bleedings) compared with idraparinux ([1]; patients with DVT treated for 6 months, equimolar doses): better safety with less observed bleedings; anti-activated factor X pharmacological activity (anti-Xa activity) compared with idraparinux (activated factor X): same; Putative odds ratio (OR) for major bleedings, idrabiotaparinux versus standard treatment (patients with DVT [2]): 0.249
CO[C@H]1O[C@H](COS(=O)(=O)O)[C@@H](O[C@@H]2O[C@@H](C(=O)O)[C@@H](O[C@H]3O[C@H](COS(=O)(=O)O)[C@@H](O[C@@H]4O[C@H](C(=O)O)[C@@H](O[C@H]5O[C@H](COS(=O)(=O)O)[C@@H](OC)[C@H](OC)[C@H]5OC)[C@H](OC)[C@H]4OC)[C@H](OS(=O)(=O)O)[C@H]3OS(=O)(=O)O)[C@H](OC)[C@H]2OC)[C@H](OS(=O)(=O)O)[C@H]1OS(=O)(=O)O [Idraparinux, idraparinux]	14	7.3	27	3.8	0	3	0	1.9	7	2	0	0	2	Kaplan-Meier cumulative incidence of first bleeding (any bleeding), comparison of the two groups ([1]; on-treatment period, at month 6): higher than in the idrabiotaparinux group; Fatal bleeding: Intracranial, % of patients [1, 5]: 0.8%; Non-fatal bleeding into a critical organ: Intracranial, % of patients [1, 5]: 0.5%; Non-fatal bleeding into a critical organ: Retroperitoneal, % of patients [1, 5]: 0.5%; Fatal bleeding: Intracranial, number of patients [n] ([1]; major bleedings up to D182 by adjudication criterion, all treated population, listed as idraparinux): three; Intracranial hemorrhages observed (fatal and non-fatal), number ([1]; up to D182, all treated population): five; Odds ratio for major bleedings, idraparinux versus standard treatment (patients with DVT [3]): 1.245; Incidence of clinically relevant bleedings (any bleedings) (patients with DVT [4]): 8.3%; Rate of major bleedings (patients with DVT [4]): 1.9%
